This assay concerns ET-A and/or ET-B receptor. Kind of assay: contraction of human aortic rings in organ culture (agonist assay). Conditions: increasing concentrations 0.01 nM to 100 nM, at top concentration, 37° C. Here is the method: Endothelin-1 is a peptide which signals through the ET-A and/or ET-B receptor to cause vasoconstriction. To determine whether compounds of the invention are agonists at ET-A and/or ET-B, rings of human aorta (obtained from transplant donor hearts) can be put into organ culture. Rings are then exposed either to increasing concentrations of Endothelin-1 (from 0.01 nM to 100 nM), or to increasing concentrations of the test compound(s) (from about 0.1 nM to about 10 mM) at 37° C., raising the concentration of the appropriate agent approximately every 5 minutes. Throughout the experiment the contraction of the aortic ring is measured by a strain gauge designed and commercially available for such a purpose. […] If the compound of the invention is an agonist at the endothelin receptors, then the force exerted on the strain guage will also be higher (at least at certain concentrations) than prior to addition of the test compound.

With Endothelin-1, the “force exerted on the strain gauge versus prior to addition” value is “significantly higher”.

For the origin of these results see patent US8618283B2, “Ligand libraries for screening GPCRs” (Cambridge Enterprise Limited, priority 2005, dated 2013).
